US6416752B1, “Termite bait composition and method” (Whitmire Micro-Gen Research Laboratories, Inc., priority 2001, dated 2002)
Where “and” joins values, the source holds several entries; their conditions need not be identical. Identical values can stand only once.

Test system: Reticulitermes virginicus
Assay: standard choice box test of termite bait compositions with killing agents
Assay type: in vivo
Conditions: for Percent Survivorship: choice with untreated pine wood; for Amount of Wood Removed: untreated pine wood blocks; for termites killed: after 25 days
Protocol: The termite bait active ingredients or killing agents diflubenzuron, emamectin benzoate and thiamethoxam were tested for their efficacy. The termite species tested was Reticulitermes virginicus. The methodology employed was the standard “choice box” test used in Example 1 in which termites were released into a central chamber with untreated wood. The central chamber was connected, using Tygon tubing (2 mm I D), with peripheral feeding chambers containing a termite bait composition of the invention (microcrystalline cellulose powder having an average particle size of 20 micrometers and a termite killing agent) or untreated pine wood. Each replicate was given the choice of one gram of the treated cellulose powder or three blocks (1 cm) of untreated pine wood. At the end of 25 or 37 days, the number of live termites was counted. At the same time, the amount of pine wood or termite bait composition consumed was measured. The treatments were replicated two times.

[1] = 25 days in bioassay, 0.05% in microcrystalline cellulose powder

Molecule	Percent Survivorship (37 days in bioassay, 0.5% in microcrystalline cellulose powder)	control of termites (after 37 days exposure)	Percent Survivorship [1] [%]	Amount of Cellulose Powder Removed (25 days, 0.05%, one gram of treated cellulose powder offered)	Amount of Wood Removed (25 days, 0.05%) [g]	termites killed [%]	Amount of Cellulose Powder Removed (600 h) [g]
O=C(NC(=O)c1c(F)cccc1F)Nc1ccc(Cl)cc1 [Dimilin, diflubenzuron]	0.1% and 0%	almost complete control					
emamectin benzoate			0	0.07 g and 0.13 g	0	100	
CN1COCN(Cc2cnc(Cl)s2)/C1=N\[N+](=O)[O-] [Thiamethoxam, thiamethoxam]			0		0	100	0.01
